One test has as its system PC3 cells. Description: PC3 growth inhibition (Cell-titer glo, 72 hours). Conditions: Homo sapiens, PC-3, PC3 cells, 72 hours, Cell-titer glo, read-out: Percent Inhibition (PC3 growth inhibition); for inhibition at 1 µM: compound concentration 1 μM; for inhibition at 1.667 µM: compound concentration 1.667 μM. Type of test: cell-based. Summed up: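 Compounds in AIM serum-free medium were applied for 72 h at 37 °C, 5% CO2 to PC3 cells plated overnight from RPMI1640 culture. Luminescence after 10 min CellTiter-Glo, normalised to DMSO, gave % viability at 1 μM or 1.667 μM, or GI50/LD50.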

For another test, the target named is hNAMPT protein (Homo sapiens (Human), UniProt P43490). The experiment in a line: NAMPT enzyme assay (TR-FRET/HTRF, BodiPY ligand, anti 6His-Tb). Type of test: binding. Conditions: for IC50: NAMPT IC50 range class, read-out: IC50; for inhibition at 1 µM: read-out: Percent Inhibition. Summed up: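 Compound or DMSO was incubated for 1 h at room temperature, protected from light, with BodiPY ligand and hNAMPT labelled by terbium anti-6His antibody. The 520 nm to 486 nm emission ratio after 320 nm excitation gave inhibition versus vehicle, from which concentration-response curves yielded IC50.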
hNAMPT protein, sequence (P43490 whole entry): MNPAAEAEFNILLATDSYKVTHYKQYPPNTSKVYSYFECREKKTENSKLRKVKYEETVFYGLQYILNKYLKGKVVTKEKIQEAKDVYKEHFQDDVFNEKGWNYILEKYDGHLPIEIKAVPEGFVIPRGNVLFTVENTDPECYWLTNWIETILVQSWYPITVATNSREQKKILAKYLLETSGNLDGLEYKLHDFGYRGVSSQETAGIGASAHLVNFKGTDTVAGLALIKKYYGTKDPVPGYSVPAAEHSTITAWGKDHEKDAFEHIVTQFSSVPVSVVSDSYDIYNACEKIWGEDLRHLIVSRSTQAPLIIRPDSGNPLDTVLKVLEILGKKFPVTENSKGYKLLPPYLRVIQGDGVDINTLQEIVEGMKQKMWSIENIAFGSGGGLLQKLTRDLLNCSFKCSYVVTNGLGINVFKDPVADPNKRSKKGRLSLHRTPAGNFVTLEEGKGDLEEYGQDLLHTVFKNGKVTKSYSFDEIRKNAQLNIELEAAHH
(In general: TR-FRET usually uses a lanthanide donor and a delayed reading to cut background.)

Where two headings read alike, the source gives them in different places.

In the case of `O=C(NCCCn1ccnc1)c1ccc2nc(-c3ccccc3)c(N3CCOCC3)nc2c1` [Compound I-144, N-[3-(1H-imidazol-1-yl)propyl]-3-(morpholin-4-yl)-2-phenylquinoxaline-6-carboxamide], the figures for the inhibition at 1 µM in the test with PC3 cells and on hNAMPT protein (compound concentration 1 μM) were 2% and 43%, respectively. Also, the half-inhibitory concentration (IC50) (as a rule, the concentration that gives 50% inhibition) at hNAMPT protein fell in the range of 1000 to 2000 nM.

`NS(=O)(=O)c1ccc(-c2nc3ccc(C(=O)NCCCn4ccnc4)cc3nc2-c2ccccc2)cc1` [Compound I-145, N-[3-(1H-imidazol-1-yl)propyl]-3-phenyl-2-(4-sulfamoylphenyl)quinoxaline-6-carboxamide]: the inhibition (usually the drop in the measured response relative to a control, in per cent) at 1 µM in the test with PC3 cells was -7%; at hNAMPT protein (compound concentration 1 μM), 76%. In addition, the concentration for half-maximal inhibition (IC50) at hNAMPT protein lay within 100 to 500 nM.

Turning to `O=C(NCCCn1ccnc1)c1ccc2nc(N3CCN4CCCC4C3)c(-c3ccccc3)nc2c1` (stereo not drawn) [Compound I-146, 2-(hexahydropyrrolo[1,2-a]pyrazin-2(1H)-yl)-N-[3-(1H-imidazol-1-yl)propyl]-3-phenylquinoxaline-6-carboxamide], the values for the inhibition at 1 µM in the test with PC3 cells and on hNAMPT protein (compound concentration 1 μM) were -7% and 76%, respectively. The IC50 at hNAMPT protein lay in the range of 100 to 500 nM.

As to `O=C(NCc1ccc2nccn2c1)c1ccc2nc(N3CCOCC3)c(-c3ccc(F)cc3)nc2c1` [Compound I-147, 3-(4-fluorophenyl)-N-(imidazo[1,2-a]pyridin-6-ylmethyl)-2-(morpholin-4-yl)quinoxaline-6-carboxamide], in the test on PC3 cells, the inhibition at 1.667 µM is 2%. For the same compound, at hNAMPT protein, the IC50 was less than 100 nM. Besides, the inhibition at 1 µM at hNAMPT protein (compound concentration 1 μM) amounted to 95%.

Turning to `CC(C)(C)OC(=O)NCc1ccc(-c2nc3ccc(C(=O)NCCCn4ccnc4)cc3nc2-c2ccccc2)cc1` [Compound I-148, tert-Butyl [4-(6-{[3-(1H-imidazol-1-yl)propyl]carbamoyl}-3-phenylquinoxalin-2-yl)benzyl]carbamate], the inhibition at 1 µM in the test on PC3 cells was 1%. Also, on hNAMPT protein, the IC50 was in the range of 100 to 500 nM and the inhibition at 1 µM worked out at 85%.

For `O=C(NCCCn1ccnc1)c1ccc2nc(-c3ccc4[nH]ccc4c3)c(-c3ccccc3)nc2c1` [Compound I-149, N-[3-(1H-imidazol-1-yl)propyl]-2-(1H-indol-5-yl)-3-phenylquinoxaline-6-carboxamide], the values for the inhibition at 1 µM with PC3 cells and at hNAMPT protein (compound concentration 1 μM) were -8% and 86%, respectively. Also, the concentration for half-maximal inhibition (IC50) at hNAMPT protein fell in the range of 100 to 500 nM.

As for `CS(=O)(=O)C1CCN(c2nc3ccc(C(=O)NCCCn4ccnc4)cc3nc2-c2ccccc2)C1` (stereo not drawn) [Compound I-150, N-[3-(1H-imidazo-1-yl)propyl]-2-[3-(methylsulfonyl)pyrrolidin-1-yl]-3-phenylquinoxaline-6-carboxamide], the inhibition at 1 µM in the test with PC3 cells is -7%; at hNAMPT protein (compound concentration 1 μM), 75%. The 50% inhibitory concentration (IC50) at hNAMPT protein fell in the range of 100 to 500 nM.

Regarding `Cn1ccnc1CCNC(=O)c1ccc2nc(-c3ccc(F)cc3)c(-c3ccc(F)cc3)nc2c1` [Compound I-151, 2,3-Bis(4-fluorophenyl)-N-[2-(1-methyl-1H-imidazol-2-yl)ethyl]quinoxaline-6-carboxamide], the inhibition at 1 µM turned out to be 96% with PC3 cells and 79% on hNAMPT protein (compound concentration 1 μM). Besides, the IC50 on hNAMPT protein was in the range of 100 to 500 nM.

Take `CC(C)(C)OC(=O)NCc1cccc(-c2nc3ccc(C(=O)NCCCn4ccnc4)cc3nc2-c2ccccc2)c1` [Compound I-152, tert-butyl[3-(6-{[3-(1H-imidazol-1-yl)propyl]carbamoyl}-3-phenylquinoxalin-2-yl)benzyl]carbamate]: the inhibition at 1 µM with PC3 cells stood at 3%; at hNAMPT protein (compound concentration 1 μM), 62%. In addition, at hNAMPT protein, the half-maximal inhibitory concentration (IC50) lay in the range of 500 to 1000 nM.

`O=C(NCCCn1ccnc1)c1ccc2nc(-c3ccccc3)c(N3CCC(O)C3)nc2c1` (stereo not drawn) [Compound I-153, 3-(3-hydroxypyrrolidin-1-yl)-N-[3-(1H-imidazol-1-yl)propyl]-2-phenylquinoxaline-6-carboxamide]: the inhibition at 1 µM was 14% in the test on PC3 cells and 22% on hNAMPT protein (compound concentration 1 μM). The IC50 at hNAMPT protein fell in the range of 2000 to 10000 nM.

Take `O=C(NCCCc1ncc[nH]1)c1ccc2nc(N3CC4(COC4)C3)c(-c3ccc(F)cc3)nc2c1` [Compound I-154, 3-(4-fluorophenyl)-N-[3-(1H-imidazol-2-yl)propyl]-2-(2-oxa-6-azaspiro[3.3]hept-6-yl)quinoxaline-6-carboxamide]: the inhibition at 1.667 µM in the test on PC3 cells stood at 2%. Moreover, on hNAMPT protein, the IC50 was less than 100 nM. At hNAMPT protein (compound concentration 1 μM), the inhibition at 1 µM stood at 98%.

Take `O=C(c1ccc2nc(-c3ccc(F)cc3)c(-c3ccc(F)cc3)nc2c1)N1CCOC(c2cccnc2)C1` (stereo not drawn) [Compound I-155, [2,3-bis(4-fluorophenyl)quinoxalin-6-yl][2-(pyridin-3-yl)morpholin-4-yl]methanone]: the inhibition at 1 µM was found to be 103% in the test with PC3 cells and 12% on hNAMPT protein (compound concentration 1 μM). In addition, at hNAMPT protein, the IC50 was in the range of 2000 to 10000 nM.

Regarding `O=C(NCc1ccc2nccn2c1)c1ccc2nc(N3CCC(O)CC3)c(-c3ccc(F)cc3)nc2c1` [Compound I-156, 3-(4-Fluorophenyl)-2-(4-hydroxypiperidin-1-yl)-N-(imidazo[1,2-a]pyridin-6-ylmethyl)quinoxaline-6-carboxamide], the inhibition at 1.667 µM with PC3 cells was found to be 2%. For the same compound, at hNAMPT protein, the IC50 was less than 100 nM. Moreover, the inhibition at 1 µM on hNAMPT protein (compound concentration 1 μM) was found to be 97%.

Take `N#Cc1cccc(-c2nc3cc(C(=O)NCCCn4ccnc4)ccc3nc2-c2ccccc2)c1` [Compound I-157, 3-(3-cyanophenyl)-N-[3-(1H-imidazol-1-yl)propyl]-2-phenylquinoxaline-6-carboxamide]: the inhibition at 1 µM amounted to 2% with PC3 cells and 40% on hNAMPT protein (compound concentration 1 μM). Besides, the concentration for half-maximal inhibition (IC50) on hNAMPT protein lay within 1000 to 2000 nM.

Take `Cc1nc2ccc(C(=O)NCCCn3ccnc3)cc2nc1-c1ccccc1` [Compound I-158, N-[3-(1H-imidazol-1-yl)propyl]-2-methyl-3-phenylquinoxaline-6-carboxamide]: the inhibition at 1 µM with PC3 cells amounted to 0%; on hNAMPT protein (compound concentration 1 μM), 42%. Further, the IC50 on hNAMPT protein was 1000 to 2000 nM.

In the case of `O=C(NCCCn1ccnc1)c1ccc2nc(N3CC4CC4C3)c(-c3ccccc3)nc2c1` (stereo not drawn) [Compound I-159, 2-(3-azabicyclo[3.1.0]hex-3-yl)-N-[3-(1H-imidazol-1-yl)propyl]-3-phenylquinoxaline-6-carboxamide], the inhibition at 1 µM is -6% with PC3 cells and 71% on hNAMPT protein (compound concentration 1 μM). The concentration for half-maximal inhibition (IC50) on hNAMPT protein lay in the range of 100 to 500 nM.

Consider `O=C(NCCCn1ccnc1)c1ccc2nc(N3CCCCC3)c(-c3ccccc3)nc2c1` [Compound I-161, N-[3-(1H-imidazol-1-yl)propyl]-3-phenyl-2-(piperidin-1-yl)quinoxaline-6-carboxamide], for which the results for the inhibition at 1 µM in the test on PC3 cells and on hNAMPT protein (compound concentration 1 μM) were -7% and 89%, respectively. In addition, the IC50 on hNAMPT protein is less than 100 nM.

Turning to `O=C(NCCCn1ccnc1)c1ccc2nc(-c3ccccc3)c(C3=CCOCC3)nc2c1` [Compound I-162, 3-(3,6-dihydro-2H-pyran-4-yl)-N-[3-(1H-imidazol-1-yl)propyl]-2-phenylquinoxaline-6-carboxamide], the inhibition at 1 µM in the test on PC3 cells amounted to 1%; at hNAMPT protein (compound concentration 1 μM), 44%. Besides, the IC50 on hNAMPT protein is 1000 to 2000 nM.

As for `O=C(c1ccc2nc(-c3ccc(F)cc3)c(-c3ccc(F)cc3)nc2c1)N1CCC(c2ccccn2)C1` (stereo not drawn) [Compound I-163, [2,3-bis(4-fluorophenyl)quinoxalin-6-yl][3-(pyridin-2-yl)pyrrolidin-1-yl]methanone], the inhibition at 1 µM was found to be 86% in the test with PC3 cells and 17% on hNAMPT protein (compound concentration 1 μM). For the same compound, the concentration for half-maximal inhibition (IC50) on hNAMPT protein fell in the range of 2000 to 10000 nM.

With `O=C(NCCc1nccs1)c1ccc2nc(-c3ccc(F)cc3)c(-c3ccc(F)cc3)nc2c1` [Compound I-164, 2,3-Bis(4-fluorophenyl)-N-[2-(1,3-thiazol-2-yl)ethyl]quinoxaline-6-carboxamide], the inhibition at 1 µM with PC3 cells was 101%. Moreover, at hNAMPT protein, the IC50 lay in the range of 100 to 500 nM and the inhibition at 1 µM is 83%.

As to `CN1CC=C(c2nc3ccc(C(=O)NCCCn4ccnc4)cc3nc2-c2ccccc2)CC1` [Compound I-165, N-[3-(1H-imidazol-1-yl)propyl]-2-(1-methyl-1,2,3,6-tetrahydropyridin-4-yl)-3-phenylquinoxaline-6-carboxamide], the inhibition at 1 µM with PC3 cells was -7%; at hNAMPT protein (compound concentration 1 μM), 78%. Moreover, the IC50 on hNAMPT protein fell in the range of 100 to 500 nM.

With `O=C(NCCCn1ccnc1)c1ccc2nc(-c3ccccc3)c(N3CCCCC3)nc2c1` [Compound I-166, N-[3-(1H-imidazol-1-yl)propyl]-2-phenyl-3-(piperidin-1-yl)quinoxaline-6-carboxamide], the results for the inhibition at 1 µM with PC3 cells and at hNAMPT protein (compound concentration 1 μM) were 5% and 31%, respectively. Also, the half-inhibitory concentration (IC50) at hNAMPT protein fell in the range of 2000 to 10000 nM.

For the compound `Cn1cc(-c2nc3cc(C(=O)NCCCn4ccnc4)ccc3nc2-c2ccccc2)cn1` [Compound I-167, N-[3-(1H-imidazol-1-yl)propyl]-3-(1-methyl-1H-pyrazol-4-yl)-2-phenylquinoxaline-6-carboxamide], the inhibition at 1 µM in the test on PC3 cells stood at 1%; at hNAMPT protein (compound concentration 1 μM) it was 24%. In addition, the concentration for half-maximal inhibition (IC50) at hNAMPT protein lay in the range of 2000 to 10000 nM.

With `CC(=O)N1CCN(c2nc3cc(C(=O)NCCCn4ccnc4)ccc3nc2-c2ccccc2)CC1` [Compound I-168, 3-(4-Acetylpiperazin-1-yl)-N-[3-(1H-imidazol-1-yl)propyl]-2-phenylquinoxaline-6-carboxamide], the figures for the inhibition at 1 µM in the test with PC3 cells and on hNAMPT protein (compound concentration 1 μM) were 1% and 84%, respectively. The IC50 at hNAMPT protein lay in the range of 100 to 500 nM.

In the case of `O=C(NCCc1ccccn1)c1ccc2nc(-c3ccc(F)cc3)c(-c3ccc(F)cc3)nc2c1` [Compound I-169, 2,3-bis(4-fluorophenyl)-N-[2-(pyridin-2-yl)ethyl]quinoxaline-6-carboxamide], the inhibition at 1 µM worked out at 93% in the test on PC3 cells and 36% at hNAMPT protein (compound concentration 1 μM). Besides, the IC50 on hNAMPT protein was 1000 to 2000 nM.

The values above are taken from US10144742B2 (Millennium Pharmaceuticals, Inc., priority 2014, dated 2018).
